The source of these data is ChEMBL document CHEMBL1157539, “Thousands of chemical starting points for antimalarial lead identification” (Nature, 2010).

The experiment deals with Plasmodium falciparum. In words: GSK_TCMDC: Inhibition of Plasmodium falciparum 3D7 in whole erythrocytes, using parasite LDH activity as an index of growth. The format is functional, organism-based. Conditions: Plasmodium falciparum, 3D7.
`COc1ccc2nc(C)cc(N/N=C/c3ccc([N+](=O)[O-])o3)c2c1` returned an XC50 of 698 nM.
Take `COc1cc2c(Nc3ccc(NC(=O)c4ccccc4)cc3)ncnc2cc1OCCCN1CCOCC1`: the XC50 was 648 nM.
In turn, `O=C(Cn1c(CCc2cccc(F)c2F)nc(=O)c2ccccc21)N(Cc1ccc(-c2ccc(C(F)(F)F)cc2)cc1)C1CCN(C2=NCCS2)CC1` yielded an XC50 of 1330 nM.
For the compound `Cc1cc2c(NC(=O)NC3CCN(Cc4ccc(Cl)c(Cl)c4)CC3)cccc2cn1`, the XC50 was found to be 681 nM.
`CN(C)CC(O)C(c1ccccc1)c1cccc(Br)c1` (stereo unspecified) showed an XC50 of 164 nM.
Under `Cc1noc(-c2ccc3c(c2)CCN(CCC2CCC(NC(=O)/C=C/c4cccc(Cl)c4)CC2)CC3)n1` (stereo unspecified) stands 998 nM; under `O=C(Nc1ccc(-c2cccc(-c3nc4ccccc4[nH]3)c2)cc1)Nc1ccc2c(c1)OCO2`, 254 nM.
The figure for `Cc1cc(NC(=O)c2sc3ccccc3c2O)no1` is 809 nM.
As for `O=C(COc1cccc([N+](=O)[O-])c1)Nc1ccc(-c2nc3ccccc3[nH]2)cc1`, the XC50 amounted to 754 nM.
As for `O=C(/C=C/c1ccc(Cl)cc1)NCCCCCN1CCN(C(=O)Nc2ccc(Cl)c(C(F)(F)F)c2)CC1`, the XC50 amounted to 920 nM.
In turn, `O=C(n1c(-c2cc3ccccc3n2C(=O)C(F)(F)F)cc2ccccc21)C(F)(F)F` came in with an XC50 of 878 nM.
The compound `CC(=O)Nc1ccc(S(=O)(=O)Nc2c(C)cc(Cc3cnc(N)nc3N)cc2C)cc1` came in with an XC50 of 1000 nM.
Under `Cc1cccc2nc(-c3ccc(-c4cccc(CNCC5CCCO5)c4)s3)[nH]c12` (stereo unspecified) stands 972 nM; under `CNC(=O)c1cnc(Nc2ccc(N3CCOCC3)cc2)nc1Nc1cccc(O)c1`, 808 nM; under `CCCCCCCOc1ccc(NC(=O)Nc2ccc(Cn3ncc(N4CCCNCC4)c(Cl)c3=O)cc2)cc1`, 923 nM.
The figure for `COc1cc2nc(Nc3ccc4c(c3)OCCO4)nc(N)c2cc1OC` is 469 nM; for `O=[N+]([O-])c1ccc2nc(Nc3ccc(Cl)c(Cl)c3)c(Nc3ccc(Cl)c(Cl)c3)nc2c1` it is 793 nM.
As for `CCNc1cc(C(=O)N[C@@H](Cc2ccccc2)[C@H](O)CNC2(CC)CCCCC2)cc(N2CCCCS2(=O)=O)c1`, the XC50 stood at 265 nM.
Take `O=C(Nc1cc2cc(-c3ccc(CN4CCCCC4)cc3)ccc2n2cnnc12)NC1CCCC1`: the XC50 was found to be 1520 nM.
The figure for `COc1ccccc1NC(=S)N/N=C/c1ccc(O)cc1O` is 1020 nM; for `COc1ccc(-c2nc3c(N)nc(N)nc3nc2C(C)C)cc1` it is 188 nM; for `COc1ccc2nc(C)cc(Nc3ccc(Oc4ccc5ccccc5c4Cl)c(Cl)c3)c2c1` it is 501 nM.
Compound `COC(=O)c1ccc(CC(C)NCC(O)c2cccc(SC(F)(F)F)c2)cc1` (stereo unspecified) had an XC50 of 887 nM.
The compound `O=c1cc(NCCCNC(CNCCc2ccccc2)c2cc(Br)cc(Br)c2)[nH]c2ccccc12` (stereo unspecified) returned an XC50 of 864 nM.
Take `COc1ccc2nccc([C@@H](O)CN3CCC(NC/C=C/c4cccnc4)CC3)c2c1`: the XC50 stood at 622 nM.
The compound `O=C(Nc1cccc(N2CCC(NCc3cccnc3)CC2)c1)c1cccc(C(F)(F)F)c1` came in with an XC50 of 970 nM.
Under `O=C(NC1CCN(c2ccnc3cc(Cl)ccc23)C1)c1ccc(C(F)(F)F)cc1` (stereo unspecified) stands 143 nM; under `CCn1ncc(Cl)c1CN(C)S(=O)(=O)c1ccc(Br)cc1`, 1020 nM; under `CCN(CC)CCOc1ccc(C(O)(C#CC(O)(c2ccc(OCCN(CC)CC)cc2)c2ccc([N+](=O)[O-])cc2)c2ccc([N+](=O)[O-])cc2)cc1` (stereo unspecified), 1730 nM.
`O=[N+]([O-])c1ccc(N/C(=N\c2ccccc2Br)NC2CCCc3ccccc32)c(O)c1` (stereo unspecified): the XC50 amounted to 919 nM.
Turning to `O=C(Nc1ccc(OC2CCN(Cc3ccc(F)cc3)C2)c(Cl)c1)c1ccsc1` (stereo unspecified), the XC50 turned out to be 538 nM.
On to `O=C(NCC1CCC1)c1cnc(Nc2cccc(Cl)c2)nc1N1CCC1`, for which the XC50 is 862 nM.
In turn, `Cc1cc(OCC2CCN(c3ncc(C(=O)Nc4ccccc4)cc3Cl)CC2)ccc1F` yielded an XC50 of 899 nM.
Take `CN(C(=O)/C=C/c1ccccc1F)C1CCN(CCCCCNC(=O)/C=C/c2ccc(Cl)c(Cl)c2)CC1`: the XC50 was determined as 509 nM.
As for `CCCN(CC(=O)NCCc1ccccc1)c1ccc(C#N)c2ccccc12`, the XC50 came out at 500 nM.
Consider `O=C(Nc1ccc(Cl)cc1)c1cccc(S(=O)(=O)NC2CCN(CC3CCCCC3)C2)c1` (stereo unspecified), for which the XC50 came out at 905 nM.
For the compound `Cc1ccc(O)cc1Nc1ccnc2ccc(-c3csc(CNCCN4CCOCC4)n3)cc12`, the XC50 came to 153 nM.
As for `Clc1ccc(CNCCCCCCNCc2ccc(Cl)cc2)cc1`, the XC50 stood at 845 nM.
The figure for `CN(C)Cc1ccc(-c2ccc3ccnc(N)c3c2)cc1` is 380 nM.
`CC(C)CCNC(=O)C1Cc2c([nH]c3cc(Cl)ccc23)C2(CCN(CCc3ccccc3)CC2)N1` (stereo unspecified): the XC50 worked out at 690 nM.
With `CCc1nc2c(cnn2CC)c(NC2CCOCC2)c1CNC(=O)N1CCOCC1`, the XC50 was found to be 892 nM.
`CCOc1cc(C(=O)NCc2ccc(Cl)c(Cl)c2)ccc1-c1nc2cc(Cl)ccc2[nH]1` had an XC50 of 804 nM.
`O=C1CCCC1Sc1nc2ccccc2c(=O)n1-c1ccc(Cl)c(Cl)c1` (stereo unspecified) registered an XC50 of 726 nM.
For the compound `CC1(C)C(=O)Nc2ccc3c(c21)CC1SC(=O)NN=C31` (stereo unspecified), the XC50 came out at 1490 nM.
Under `CCOc1ccc2c(=NN=Cc3cc(OC)c(OC)c(OC)c3)cc(C)[nH]c2c1` stands 613 nM; under `c1ccc2c(CNc3ccnc(NCc4cccc5ccccc45)n3)cccc2c1`, 559 nM.
The figure for `N#Cc1ccc(C(=O)NC2CCN(CCCCCNC(=O)/C=C/c3ccc(Cl)c(Cl)c3)CC2)cc1` is 836 nM; for `COc1ccc(OC)c(Cc2cnc3nc(N)[nH]c(=O)c3c2C)c1` it is 357 nM.
Compound `CN(c1ccc(NC(=O)Nc2cc(C(F)(F)F)ccc2F)cc1)c1ccnc(NCCN2CCOCC2)n1` registered an XC50 of 512 nM.
`CN1CCCN(Cc2ccc(-c3cccc(NC(=O)c4ccc(Cl)cc4)c3)cc2)CC1` had an XC50 of 610 nM.
`CCC1CN2CCc3c([nH]c4ccccc34)C2CC1CC1=NCCc2c1[nH]c1ccccc21` (stereo unspecified) displayed an XC50 of 737 nM.
`CCN(CC)CCOC(=O)c1ccc(NC(=O)c2cn(-c3ccccc3)nc2-c2cccs2)cc1` displayed an XC50 of 379 nM.
`CCN(CCNc1nc(NCCc2cnc[nH]2)nc(N(CCC#N)Cc2ccccc2)n1)c1cccc(C)c1` showed an XC50 of 715 nM.
On to `Oc1ccc(Cl)cc1CN1CCC(CCOC(c2ccccc2)c2ccc(Cl)cc2)CC1` (stereo unspecified), for which the XC50 was found to be 390 nM.
The figure for `COc1ccc(C2c3ccccc3-c3nc(N)nc(N)c3C2C)cc1` (stereo unspecified) is 241 nM; for `COc1cccc(OC)c1CN1CCC(N(C)CCCCCCCCCN2CCC(OC(=O)Nc3ccccc3-c3ccccc3)CC2)CC1` it is 319 nM; for `Cc1cccc2nc(-c3ccc(-c4cccc(NC(=O)Cc5c[nH]cn5)c4)cc3)[nH]c12` it is 903 nM.
`Cc1cc(C)c2cc(CNCCCNc3nc4ccccc4[nH]3)[nH]c2c1` came in with an XC50 of 768 nM.
For the compound `COc1ccc2nccc([C@@H](O)CN3CCC(NC(=O)C(c4cc5ccccc5o4)N4CCN(c5ccccc5OC)CC4)CC3)c2c1` (stereo partly specified), the XC50 is 308 nM.
Under `CN(C(=O)c1ccccc1)C1c2cc(C#N)ccc2OC(C)(C)C1O` (stereo unspecified) stands 654 nM.
Under `NS(=O)(=O)c1cccc(-c2ccc3ncc(N4CCOCC4)nc3c2)c1` stands 987 nM; under `CN1CCC(C(=O)Nc2ccc(-c3ccc(-c4nc5ccccc5[nH]4)cc3)cc2)CC1`, 976 nM; under `O=C(N/C=N/c1cc([N+](=O)[O-])c(-c2ccncc2)n1-c1ccccc1)c1cccc(O)c1`, 331 nM.
For the compound `CON=C1CCC(Cn2ccnc2)(c2ccc(Cl)cc2Cl)CC1` (stereo unspecified), the XC50 was 875 nM.
Consider `COc1cccc(C(C)(C)NC[C@@H](O)[C@H](Cc2ccccc2)NC(=O)c2cc(C3CCCC3)cc(N3CCCCS3(=O)=O)c2F)c1`, for which the XC50 came to 28.9 nM.
The figure for `Cc1ccc(CC(C)NCC(O)c2cccc(Cl)c2)cc1F` (stereo unspecified) is 742 nM; for `N#Cc1ccc(NC(=O)N2CCCN(CCCCCNC(=O)/C=C/c3ccc(Cl)c(Cl)c3)CC2)cc1` it is 768 nM; for `COc1ccc(NC(=O)c2ccc(-c3nc(-c4ccccc4)cs3)cc2)cc1N1CCN(C)CC1` it is 992 nM.
On to `Cc1ccnc(Nc2nc(-c3ccccn3)cs2)c1`, for which the XC50 came out at 998 nM.
`COCCN1CCC(CN(C)CC(C)(C)c2nc(-c3ccc(Cl)c(O)c3)c(-c3ccncc3)[nH]2)CC1` displayed an XC50 of 1030 nM.
The figure for `O=C(Nc1ccccc1)Nc1ccc(-c2cccc(-c3nc4cc(C(F)(F)F)ccc4[nH]3)c2)cc1` is 734 nM; for `O=C(c1ccc(O)c(-c2cc(Cl)cc(Cl)c2)c1)N1CCCC1` it is 1000 nM; for `CCCCOc1ccc(-n2c(Nc3ccccc3)nc3cc(S(N)(=O)=O)ccc32)cc1` it is 887 nM.
`Nc1cccc(CNCc2ccc(-c3ccc(-c4nc5cc(F)ccc5[nH]4)s3)cc2)c1` displayed an XC50 of 992 nM.
As for `O=C(Nc1cccc(C(F)(F)F)c1)c1ccc(S(=O)(=O)NCC2CCN(CC3CCCCC3)CC2)cc1`, the XC50 turned out to be 320 nM.
`Clc1ccc2c(N3CCN(CCN4CCN(c5ccnc6cc(Cl)ccc56)CC4)CC3)ccnc2c1` gave an XC50 of 128 nM.
Turning to `O=C(C=Cc1ccc(Cl)c(Cl)c1)NCCCCCN1CCC(CCCNC(=O)c2sc3ccccc3c2Cl)CC1`, the XC50 was 398 nM.
In turn, `COc1cc(CCCOc2c(N)nc(N)nc2N)cc(OC)c1OC` returned an XC50 of 1220 nM.
The compound `COc1ccc2nccc([C@@H](O)CN3CCC(NCCOc4ccccc4C#N)CC3)c2c1` yielded an XC50 of 398 nM.
Under `COc1ccc(Nc2ncc3c(-c4ccc(NC(=O)c5cccc(C(F)(F)F)c5)cc4)c[nH]c3n2)cc1OC` stands 1030 nM; under `COC(=O)c1cc(OC2CCOC2=O)cc2c1OC(C)(C)O2` (stereo unspecified), 806 nM.
The compound `O=C(Nc1ccccc1)Nc1ccc(-n2ccc(C(F)(F)F)n2)cc1` gave an XC50 of 632 nM.
Take `COc1c(C2CCN(CCCCNC(=O)c3ccc(-c4ccc(Cl)cc4)c(OCCN(C)C)c3)CC2)ccc2c1CCCC2`: the XC50 was 190 nM.
As for `O=C(N[C@@H](Cc1ccccc1)[C@H](O)CNC1CCCCC1)c1cc(C2CCCC2)cc(N2CCCC2=O)c1`, the XC50 amounted to 169 nM.
Turning to `CN(c1ccc2c(c1)nc(NCc1ccc(F)cc1)n2C)c1ccnc(Nc2ccc(CS(C)(=O)=O)cc2)n1`, the XC50 is 828 nM.
As for `COc1ccc(CNCC(C)(C)c2nc(-c3ccc(Cl)c(O)c3)c(-c3ccncc3)[nH]2)cc1`, the XC50 amounted to 357 nM.
